In ChEMBL document CHEMBL3044545, “Synthesis and evaluation of antioxidant and antimicrobial properties of thymol containing pyridone moieties” (2012):

What was measured:
Assay type in all cases: functional
Talaromyces marneffei [1] = assay: Antimicrobial activity against Talaromyces marneffei at 100 ppm after 48 hr by agar well diffusion method; conditions: read-out: IZ
Aspergillus niger [2] = assay: Antimicrobial activity against Aspergillus niger at 100 ppm after 48 hr by agar well diffusion method; conditions: read-out: IZ
Staphylococcus aureus [3] = assay: Antimicrobial activity against Staphylococcus aureus at 100 ppm after 48 hr by agar well diffusion method; conditions: read-out: IZ
[4] = Antioxidant activity assessed as inhibition of NBT reduction at 100 ug/ml
Escherichia coli [5] = assay: Antimicrobial activity against Escherichia coli at 100 ppm after 48 hr by agar well diffusion method; conditions: read-out: IZ
[6] = Antioxidant activity assessed as inhibition of NBT reduction at 80 ug/ml
[7] = Antioxidant activity assessed as inhibition of NBT reduction at 40 ug/ml
[8] = Antioxidant activity assessed as inhibition of NBT reduction at 60 ug/ml
[9] = Antioxidant activity assessed as inhibition of NBT reduction at 20 ug/ml
Talaromyces marneffei [10] = assay: Antimicrobial activity against Talaromyces marneffei at 100 ug/ml after 48 hr by agar well diffusion method; conditions: read-out: IZ
Aspergillus niger [11] = assay: Antimicrobial activity against Aspergillus niger at 100 ug/ml after 48 hr by agar well diffusion method; conditions: read-out: IZ
Staphylococcus aureus [12] = assay: Antimicrobial activity against Staphylococcus aureus at 100 ug/ml after 48 hr by agar well diffusion method; conditions: read-out: IZ
Escherichia coli [13] = assay: Antimicrobial activity against Escherichia coli at 100 ug/ml after 48 hr by agar well diffusion method; conditions: read-out: IZ

Compound | zone of inhibition at 100 ppm (Talaromyces marneffei [1]) [mm] | zone of inhibition at 100 ppm (Aspergillus niger [2]) [mm] | zone of inhibition at 100 ppm (Staphylococcus aureus [3]) [mm] | inhibition [4] [%] | zone of inhibition at 100 ppm (Escherichia coli [5]) [mm] | inhibition [6] [%] | inhibition [7] [%] | inhibition [8] [%] | inhibition [9] [%] | zone of inhibition at 100 µg/mL (Talaromyces marneffei [10]) [mm] | zone of inhibition at 100 µg/mL (Aspergillus niger [11]) [mm] | zone of inhibition at 100 µg/mL (Staphylococcus aureus [12]) [mm] | zone of inhibition at 100 µg/mL (Escherichia coli [13]) [mm]
COc1cccc(-c2cc(-c3cc(C(C)C)c(O)cc3C)[nH]c(=O)c2C#N)c1 | 11 | 11 | 13 | 49 | 14 | 43 | 30 | 38 | 22 | – | – | – | –
COc1ccc(-c2cc(-c3cc(C(C)C)c(O)cc3C)[nH]c(=O)c2C#N)cc1OC | 10 | 9 | 13 | 61 | 13 | 58 | 44 | 52 | 25 | – | – | – | –
OC(Cn1cncn1)(Cn1cncn1)c1ccc(F)cc1F [FLUCONAZOLE] | – | – | – | – | – | – | – | – | – | 17 | 16 | – | –
Cc1cc(O)c(C(C)C)cc1-c1cc(-c2ccccc2Cl)c(C#N)c(=O)[nH]1 | 12 | 11 | 14 | 34 | 15 | 32 | 20 | 26 | 12 | – | – | – | –
Cc1ccc(C(C)C)c(O)c1 [THYMOL] | 7 | 8 | 9 | 31 | 8 | 27.5 | 16 | 22.5 | 10 | – | – | – | –
Cc1cc(O)c(C(C)C)cc1-c1cc(-c2cccs2)c(C#N)c(=O)[nH]1 | 11 | 10 | 14 | 68 | 13 | 63 | 41 | 54.3 | 26 | – | – | – | –
Cc1cc(O)c(C(C)C)cc1-c1cc(-c2ccc(N(C)C)cc2)c(C#N)c(=O)[nH]1 | 13 | 14 | 14 | 68 | 14 | 66.5 | 43 | 53 | 30 | – | – | – | –
Cc1onc(-c2ccccc2Cl)c1C(=O)N[C@@H]1C(=O)N2[C@@H]1SC(C)(C)[C@@H]2C(=O)O [CLOXACILLIN] | – | – | – | – | – | – | – | – | – | – | – | 18 | 17
Cc1cc(O)c(C(C)C)cc1-c1cc(-c2ccccc2[N+](=O)[O-])c(C#N)c(=O)[nH]1 | 11 | 12 | 13 | 37.5 | 14 | 35 | 25.5 | 31 | 20 | – | – | – | –
COc1cc(OC)c(-c2cc(-c3cc(C(C)C)c(O)cc3C)[nH]c(=O)c2C#N)c(OC)c1 | – | – | 11 | 82.5 | 10 | 79 | 52.6 | 66 | 32 | – | – | – | –
Cc1cc(O)c(C(C)C)cc1-c1cc(-c2ccco2)c(C#N)c(=O)[nH]1 | 9 | 10 | 13 | 70 | 12 | 64 | 42.5 | 55.2 | 26 | – | – | – | –
COc1cc(-c2cc(-c3cc(C(C)C)c(O)cc3C)[nH]c(=O)c2C#N)ccc1O | 11 | 11 | 15 | 44 | 14 | 42 | 32 | 37.5 | 26 | – | – | – | –
COc1ccc(-c2cc(-c3cc(C(C)C)c(O)cc3C)[nH]c(=O)c2C#N)c(OC)c1 | 10 | 10 | 14 | 58 | 13 | 55 | 37.5 | 48.5 | 27 | – | – | – | –
COc1cc(-c2cc(-c3cc(C(C)C)c(O)cc3C)[nH]c(=O)c2C#N)cc(OC)c1OC | – | – | 10 | 84.5 | 11 | 82 | 55 | 71 | 35 | – | – | – | –
COc1ccc(-c2cc(-c3cc(C(C)C)c(O)cc3C)[nH]c(=O)c2C#N)cc1 | 10 | 10 | 13 | 54 | 14 | 47.5 | 35 | 43 | 24 | – | – | – | –
Cc1cc(O)c(C(C)C)cc1-c1cc(-c2ccccc2)c(C#N)c(=O)[nH]1 | 9 | 9 | 11 | 41 | 10 | 58 | 29 | 34 | 22 | – | – | – | –
